Assay results published in the METLIN SMRT retention time set (Domingo-Almenara et al. 2019).

Experiment: gradient 5% acetonitrile 3 min, to 50% in 2 min, to 85% in 15 min, held 3 min, 100 µL/min
Details: column: Zorbax Extend-C18 2.1 x 50 mm; eluents: water / acetonitrile, 0.1% formic acid
Method in brief: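 Using water and acetonitrile that each contained 0.1% formic acid, mixtures of ~100 pure standards were separated at 100 μL/min on a Zorbax Extend-C18 column (2.1 × 50 mm, 1.8 μm). The HPLC fed a quadrupole time-of-flight mass spectrometer working in positive and negative ionization mode, with dead and dwell volumes of 40 μL and 900 μL. Data were acquired over 3 months. Retention time was read from computationally picked adduct peaks after manual inspection of each.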
In the case of `O=C1/C(=C\c2cccs2)Oc2ccccc21`, the RP-LC retention time was 958 s. `Cc1nn(C)c(C)c1CCCN(C)C(=O)CCc1ccnc(N2CCOCC2)c1` gave an RP-LC retention time of 521 s. In the case of `Cc1ccc(NC(=O)N2CCC(n3cnc4cc(F)ccc4c3=O)CC2)cc1F`, the RP-LC retention time was 832 s. Compound `Cn1nc(-c2nc(C3CC3)no2)c2c1CCN(C(=O)c1ccc(C(F)(F)F)s1)C2` has an RP-LC retention time of 970 s. For `CN1CCN(C(=O)c2csc(N3CCN(c4cccc(Cl)c4)CC3)n2)CC1`, the RP-LC retention time was 690 s. Work on `O=C(NCc1ccc(C(F)(F)F)cc1)C1CCN(c2nnc(-c3ccccc3)o2)CC1` yielded an RP-LC retention time of 901 s. Work on `COc1cc(Cc2nc(-c3cccc(-c4ccnn4C)c3)no2)cc(OC)c1` yielded an RP-LC retention time of 904 s. In the case of `Cc1ccc(-n2nc(C)c3c(C)c(CCC(=O)N4CCN(c5ccccn5)CC4)c(C)nc32)cc1`, the RP-LC retention time was 756 s. Work on `CCOc1ccccc1C(=O)N1CCN(c2nnc(SCC(=O)NC(C)C)s2)CC1` yielded an RP-LC retention time of 673 s. `CC(C)NC(=O)c1ccnn1C` showed an RP-LC retention time of 604 s. With `O=C(C1CCCN(c2nnc(-n3cccc3)s2)C1)N1CCN(c2ccc(F)cc2)CC1` (stereo unspecified) the RP-LC retention time was 950 s. For `COc1ccc(Cl)cc1S(=O)(=O)N1CC(c2nc(-c3ccncc3)nn2C)C1`, the RP-LC retention time was 664 s. In the case of `Cc1ccc(NC(=O)NC2CCN(c3ccc(F)cc3)C2=O)cc1F` (stereo unspecified), the RP-LC retention time was 886 s. With `COCCN1C(=O)c2ccccc2C(C(=O)NCc2ccccc2OC)C1c1ccc(F)cc1` (stereo unspecified) the RP-LC retention time was 924 s. With `CN(CCCNC(=O)C1c2ccccc2C(=O)N(C)C1c1cccs1)Cc1ccccc1` (stereo unspecified) the RP-LC retention time was 645 s. Compound `COCCNC(=O)Cn1nc2cc(C)nc(-c3ccc(C(F)(F)F)cc3)n2c1=O` has an RP-LC retention time of 726 s. Compound `Cc1cc(F)ccc1NC(=O)c1nnn(-c2ccc(F)cc2)c1-c1cccnc1` has an RP-LC retention time of 915 s. Work on `CCCN1C(=O)c2c(C(=O)NCc3ccccc3F)ncn2CC1(C)C(=O)NCc1ccccc1` (stereo unspecified) yielded an RP-LC retention time of 812 s. In the case of `COc1cccc(CCN2CC(=O)N(c3ccc(C)c(C)c3)[C@@H]3CS(=O)(=O)C[C@@H]32)c1`, the RP-LC retention time was 872 s. Compound `CCCC(CCC)C(=O)N1CCCN(C2=NS(=O)(=O)C(c3ccc(F)cc3)=C2C)CC1` has an RP-LC retention time of 972 s. For `O=C(c1cnn2c(-c3ccc4c(c3)OCO4)ccnc12)N1CCN(c2ccccc2)CC1`, the RP-LC retention time was 864 s. Work on `O=C(Nc1cc(-c2ccccn2)no1)c1cccc(Br)c1` yielded an RP-LC retention time of 894 s. Work on `Cn1nc(-c2nc(Cc3ccccc3)no2)c2c1CCN(C(=O)C1CCOC1)C2` (stereo unspecified) yielded an RP-LC retention time of 777 s. In the case of `CSc1ccc(Cl)c(-c2nc(-c3cccc(-c4ccnn4C)c3)no2)c1`, the RP-LC retention time was 1300 s. Work on `O=C(CCCc1ccccc1)N1CCN2CCS(=O)(=O)N(C3CC3)C(=O)C2C1` (stereo unspecified) yielded an RP-LC retention time of 852 s. `COc1ccc(-c2noc(Cn3nc(-c4ccccc4)ccc3=O)n2)c(OC)c1` gave an RP-LC retention time of 880 s. Work on `COc1ccc([C@@H]2CC(=O)c3c(O)cc(O[C@@H]4O[C@H](CO)[C@@H](O)[C@H](O)[C@H]4OC4O[C@@H](C)[C@H](O)[C@@H](O)[C@H]4O)cc3O2)cc1O` (stereo partly specified) yielded an RP-LC retention time of 652 s. For `COc1ccc(CCC(=O)NC(C)C(=O)Nc2nc3ccccc3[nH]2)cc1` (stereo unspecified), the RP-LC retention time was 656 s. Compound `Cc1ccnc(N2CCC(C(=O)NCCCN3CCCC3=O)CC2)n1` has an RP-LC retention time of 579 s. `CCSc1nnc(NC(=O)Cc2cc(-c3ccc4c(c3)CC(C)O4)on2)s1` (stereo unspecified) showed an RP-LC retention time of 895 s. `O=C(O)c1cnc(NCc2cccnc2)nc1-c1ccc(Cl)cc1` gave an RP-LC retention time of 606 s. With `O=C([C@@H]1C[C@H](F)CN1C(=O)Nc1cccc(Br)c1)N1CCCCC1` the RP-LC retention time was 753 s. With `CCCc1noc(-c2cccnc2N2CCCN(Cc3ccc(F)cc3)CC2)n1` the RP-LC retention time was 729 s. In the case of `COc1ccc(-c2nnc(Cc3nc(C(C)C)no3)o2)cc1`, the RP-LC retention time was 858 s. Work on `Cc1nnc2cc(N3CCN(C(=O)Nc4ccccc4Cl)CC3)cnn12` yielded an RP-LC retention time of 567 s. `Cc1cccc(S(=O)(=O)N2CCN(c3cc(C)nc(NC4CCCCC4)n3)CC2)c1` gave an RP-LC retention time of 860 s. `CCOC(=O)c1cc(-c2ccc(S(=O)(=O)N3CCN(c4ccccn4)CC3)s2)on1` showed an RP-LC retention time of 809 s. Compound `Cc1cc(C)c(S(=O)(=O)N2CCC(c3noc(-c4ccccc4)n3)CC2)c(C)c1` has an RP-LC retention time of 1350 s. Compound `Cc1cc(Br)ccc1NC(=O)CCc1nc(C2=CCN(C)CC2)no1` has an RP-LC retention time of 642 s. In the case of `CCc1nncn1C1CCN(S(=O)(=O)c2ccc(C)c(Cl)c2)CC1`, the RP-LC retention time was 754 s. With `Cc1ccn2cc(-c3ccc(C)c(NS(=O)(=O)c4ccc(C)c(C)c4)c3)nc2c1` the RP-LC retention time was 729 s. With `CCn1cc(CCNC(=O)Nc2cccc(Cl)c2F)c2cccnc21` the RP-LC retention time was 802 s. `O=C(c1ccc(OCC2CCCN2C(=O)C2CC2)cc1)N1CCCC1` (stereo unspecified) gave an RP-LC retention time of 714 s. `CCc1cc(=O)n(CC(=O)Nc2cccc(C(C)=O)c2)c(N2CCOCC2)n1` showed an RP-LC retention time of 677 s. `O=C(NC1CCCC1)c1nnn(-c2ccc(F)cc2)c1-c1ccncc1` gave an RP-LC retention time of 788 s. `Cc1ccc2c(=O)c3c([nH]c2c1C)CCN(CC(=O)Nc1ccc(F)c(F)c1)C3` showed an RP-LC retention time of 646 s. With `O=C(C1CCCN(c2nc3ccccc3n3cccc23)C1)N1CCN(c2ccccc2)CC1` (stereo unspecified) the RP-LC retention time was 793 s. For `Cc1cccc(-n2c(=O)c3c(cc(C)n3C)n(CC(=O)Nc3cccc(Br)c3)c2=O)c1`, the RP-LC retention time was 962 s. In the case of `CCOc1ccc(-c2csc(NC(=O)CS(=O)(=O)c3ccc(Cl)cc3)n2)cc1`, the RP-LC retention time was 1070 s. `Cc1ccc(C)c(Sc2ccc(N3CCC(C(=O)NCCC4=CCCCC4)CC3)nn2)c1` gave an RP-LC retention time of 1010 s. In the case of `Cc1ccc(NC(=O)N2CCN(c3cc(C)nc(N4CCOCC4)n3)CC2)c(Cl)c1`, the RP-LC retention time was 669 s. In the case of `CCC(C)NC(=O)c1cnn(-c2ccc(-c3nc(C(C)(C)C)no3)cn2)c1C` (stereo unspecified), the RP-LC retention time was 1050 s. `Cc1ccc(-n2nc(C(=O)Nc3ccc4c(c3)OCCO4)c3ncn(C)c(=O)c32)cc1` showed an RP-LC retention time of 887 s. With `COCCCNC(=O)c1c(C)sc2ccn(Cc3ccc(F)cc3)c(=O)c12` the RP-LC retention time was 746 s. `COc1ccc2[nH]cc(CCNC(=O)C(C)n3c4ccccc4c4cnn(C)c(=O)c43)c2c1` (stereo unspecified) showed an RP-LC retention time of 813 s. Compound `COC1CCC12CCN(C(=O)c1ocnc1C)CC2` (stereo unspecified) has an RP-LC retention time of 692 s. Compound `Cc1cc(NCCN(C)C)n2nc(-c3ccccc3)c(C)c2n1` has an RP-LC retention time of 572 s. For `COC(=O)c1nnn(-c2ccc(OC)cc2)c1C(=O)OC`, the RP-LC retention time was 815 s. In the case of `CN1C(=O)C2CCCCN2c2ccc(C(=O)NCCc3cccs3)cc21` (stereo unspecified), the RP-LC retention time was 872 s. Compound `CC(C)CC(=O)N1CCC(c2noc(-c3ccncc3)n2)C1` (stereo unspecified) has an RP-LC retention time of 719 s. Compound `CCCc1noc(-c2ccc(-n3cnc(C(=O)NC4CCCCC4)c3)nc2)n1` has an RP-LC retention time of 741 s. `COc1ccc(-c2coc3cc(OC(=O)N(C)C)cc(O)c3c2=O)cc1OC` gave an RP-LC retention time of 858 s. Compound `O=S(=O)(c1cccc(Cl)c1)N1CCN(c2cnn3cnnc3c2)CC1` has an RP-LC retention time of 703 s. For `Cn1c(=O)c(-c2c(Cl)cccc2Cl)cc2cnc(Nc3ccc(N4CCOCC4)cc3)nc21`, the RP-LC retention time was 1010 s. `CC(C)CN1C(=O)c2cccn2CC1C(=O)NCc1ccco1` (stereo unspecified) showed an RP-LC retention time of 733 s. With `c1ccc(-n2ncc3c(NCc4ccc5c(c4)OCO5)ncnc32)cc1` the RP-LC retention time was 877 s. Compound `Cc1[nH]c(=O)[nH]c(=O)c1CCC(=O)Nc1cccc(-c2nc3ccccc3s2)c1` has an RP-LC retention time of 672 s. `Cc1nc2c(NS(=O)(=O)c3ccc(F)c(C)c3)cccn2n1` showed an RP-LC retention time of 784 s. For `Cn1nc(-c2cccc(NC(=O)C3c4ccccc4Oc4ccccc43)c2)ccc1=O`, the RP-LC retention time was 814 s. In the case of `Fc1cccc(-c2nn3c(-c4ccc5ccccc5n4)nnc3s2)c1`, the RP-LC retention time was 987 s. `CCOc1ccccc1CNC(=O)C1CCCN(c2ccc(=O)n(-c3ccc(C)c(Cl)c3)n2)C1` (stereo unspecified) gave an RP-LC retention time of 828 s. `CCc1cccc(NC(=O)C2CCCN(S(=O)(=O)c3cc(-c4noc(CC)n4)cs3)C2)c1` (stereo unspecified) gave an RP-LC retention time of 1090 s. `CCOc1ccc(-n2c(N3CCC(C)CC3)nc3cc(C(=O)OC)ccc3c2=O)cc1` gave an RP-LC retention time of 1300 s. Compound `O=C(c1ccc2ccccc2n1)N1C[C@@H](CO)[C@H](c2ccccn2)C1` has an RP-LC retention time of 590 s. With `Cc1cc(C)c(S(=O)(=O)N2CC(c3nc(Cc4ccccc4)no3)C2)c(C)c1` the RP-LC retention time was 1190 s. `CCN(CCN(C)C)C(=O)c1c2c(nc3ccccc13)C(=O)N(C1CCCCC1)C2` gave an RP-LC retention time of 601 s. For `COc1cc(OC)c(NC(=O)Nc2ccc3nc(N4CCN(C)CC4)cc(C)c3c2)cc1Cl`, the RP-LC retention time was 614 s. Compound `C=CCN1C(=O)COc2ccc(-c3csc(NC(=O)C(C)(C)C)n3)cc21` has an RP-LC retention time of 964 s. In the case of `CCn1ccc2cc(S(=O)(=O)N3CCCN(C(=O)NCc4ccco4)CC3)ccc21`, the RP-LC retention time was 832 s. In the case of `CCOC(=O)c1cnc2nc(C)ccc2c1Nc1cccc(Br)c1`, the RP-LC retention time was 756 s. For `COc1ccc(N2CCN(c3nccc4ccc(C(=O)NC5CCCCCC5)cc34)CC2)cc1`, the RP-LC retention time was 835 s. `CC(C)CCNC(=O)CN1C(=O)C2CCCCN2c2ccc(S(=O)(=O)N3CCCC3)cc21` (stereo unspecified) showed an RP-LC retention time of 940 s. `COC(=O)c1ccc(NC(=O)C(=O)NCC2CCN(S(C)(=O)=O)CC2)cc1` showed an RP-LC retention time of 828 s. In the case of `O=C(Nc1ccc(C2(C(=O)N3CCN(c4ccc(F)cc4)CC3)CCC2)cc1)C1CC1`, the RP-LC retention time was 922 s. With `N#Cc1cccc(NC(=O)CN2CCc3[nH]c4c(F)c(Cl)ccc4c(=O)c3C2)c1` the RP-LC retention time was 913 s. `CN(C)CCN(C(=O)CCc1ccccc1)c1nc2ccc(F)cc2s1` showed an RP-LC retention time of 773 s.
